The results in this text go back to patent US11117901B2, “Substituted pyrazolo[4,3-h]quinazolines as choline kinase inhibitors” (NERVIANO MEDICAL SCIENCES S.R.L., priority 2017, dated 2021).

Where two headings read alike, the source gives them in different places.

For one test, the target named is T1, Δ49N-hChoKα (Homo sapiens, UniProt P35790).
T1 construct: cDNA fragment 362-1534, corresponding to aminoacids 50 457; GST (N, cleaved yes); PreScission Protease recognition site (N); made in house; host or cells: Escherichia coli BL21pLysS (DE3)
T1 sequence (P35790 50-439 isoform P35790-2): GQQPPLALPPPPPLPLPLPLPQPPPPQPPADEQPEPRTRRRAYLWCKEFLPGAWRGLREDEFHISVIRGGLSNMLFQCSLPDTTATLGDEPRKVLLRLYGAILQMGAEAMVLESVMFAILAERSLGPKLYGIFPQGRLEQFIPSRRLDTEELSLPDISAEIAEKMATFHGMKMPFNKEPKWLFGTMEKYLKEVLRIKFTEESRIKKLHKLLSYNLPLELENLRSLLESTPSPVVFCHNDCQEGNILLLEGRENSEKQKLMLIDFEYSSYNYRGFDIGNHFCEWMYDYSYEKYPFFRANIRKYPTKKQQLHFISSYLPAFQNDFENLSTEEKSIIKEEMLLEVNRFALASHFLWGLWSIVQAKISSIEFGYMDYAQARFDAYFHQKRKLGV
Briefly: Biochemical kinase inhibition assay (Kinase-Glo luminescent) on Δ49N-hChoKα. The following applies: ATP 5 μM, choline 5 μM, 60 min rt. Here is the method: (§1) HumanΔ49ChoKα ([…]Δ49N-hChoKα) cDNA fragment 362-1534, corresponding to aminoacids 50 457 (J. Mol. Biol. 2006, 364, 136-151), and hChoKβ full length (FL), corresponding to aminoacids 2-395 ((PLoS ONE 2009, 4, e7819), were amplified by PCR from human library and cloned, inserting upstream a Prescission Protease recognition site, in pDonor 221 vector, using the Gateway Technology® (Invitrogen). After sequence control, LR reaction was performed in the final expression pGEX 2Tg vector. Both the proteins were expressed in Escherichia coli BL21pLysS (DE3) strain in auto-induction (Kessler) medium in the presence of […] carbenicillin at 25° C. for 16 h. Cells were harvested by centrifugation, the pellet was re-suspended in Lysis buffer (50 mM Tris-HCl pH 7.8, 150 mM NaCl, 10% glycerol, 0.2% CHAPS, 20 mM DTT, Protease Inhibitor Cocktail Tablets from Roche Biochemicals) and lysed by Gaulin homogenizer (Niro Soavi). The lysate was cleared by centrifugation. The supernatant was added to GSH resin and let flow by gravity. The GSH resin was washed with 5 column volume (CV) of cold wash buffer (50 mM Tris-HCl pH 7.8, 150 mM NaCl, 10% glycerol), then with 10 CV of the same buffer containing 2 mM of DTT. Both GST-Δ49N-hChoKα and hChoKβ were subjected to on-column cleavage of the GST tag with Prescission Protease overnight. The eluted cleaved proteins were further purified by ion exchange (ResQ 6 mL chromatography column from GE healthcare) with a gradient from 50 to 500 mM NaCl in 30 CV. The fractions containing […]Δ49N-hChoKα or hChoKβ were pooled, concentrated and gel filtered on a Superdex200 16/60 (GE Healthcare). The final protein concentration was estimated using the Bradford assay. All the samples purified were resolved by SDS-PAGE.
(§2) Biochemical Kinase inhibition Assay on Δ49N-hChoKα and hChoKβFL
(§3) The biochemical activity of compounds against Δ49N-ChoKα and ChoK3 FL were determined using the Kinase-Glo™ Luminescent Kinase Assay (Promega cat. V6711). The assay is based on incubation of the recombinant Δ49N-hChoKα and hChoKβ FL produced in house, 2.2 nM and 30 nM, respectively, with the specific substrates, choline (Sigma-Aldrich-C7017) and ATP, followed by quantification, at the end of reaction time, of the residual not reacted ATP.
(§4) Compounds were 3-fold serially diluted from 10 to 0.0005 μM, then incubated for 60 minutes at room temperature in the presence of ATP 5 μM, choline (5 μM for ChoKα and 20 μM for ChoKβ) and enzyme in a final volume of 19 μL of kinase buffer (50 mM Hepes pH 7.5, 10 mM MgCl2, 1 mM DTT, 3 μM Na3VO4 and 0.2 mg/mL BSA). The final concentration of DMSO was 1%. The assay was run in a robotized format on 384-well plates (Perkin Elmer cat. #6005301).
(§5) At the end of the incubation, an amount of 19 μL of KinaseGlo Reagent was added to each well to stop the reaction and after 30 minutes the luminescence signal was measured using ViewLux reader (Perkin Elmer).
(§6) All information about plate dilution, distribution and raw data of inhibition are tracked via barcode reading and stored in an Oracle DB. The data per each molecule are analyzed by an internally customized version of the SW package “Assay Explorer” which provides sigmoidal fittings of the ten-dilution curves for IC50 determination using a 4 parameter logistic equation: y=bottom+(top−bottom)/(1+10^((log IC50−x)*slope)) where x is the logarithm of the inhibitor concentration, y is the response; y starts at bottom and goes to top with a sigmoid shape.
A general note: Kinase-Glo measures the ATP left after a reaction by luminescence.

For another test, the target named is T2, hChoKβ FL (Homo sapiens, UniProt Q9Y259).
T2 construct: hChoKβ full length (FL), corresponding to aminoacids 2-395; GST (N, cleaved yes); PreScission Protease recognition site (N); made in house; host or cells: Escherichia coli BL21pLysS (DE3)
T2 sequence (Q9Y259 2-395): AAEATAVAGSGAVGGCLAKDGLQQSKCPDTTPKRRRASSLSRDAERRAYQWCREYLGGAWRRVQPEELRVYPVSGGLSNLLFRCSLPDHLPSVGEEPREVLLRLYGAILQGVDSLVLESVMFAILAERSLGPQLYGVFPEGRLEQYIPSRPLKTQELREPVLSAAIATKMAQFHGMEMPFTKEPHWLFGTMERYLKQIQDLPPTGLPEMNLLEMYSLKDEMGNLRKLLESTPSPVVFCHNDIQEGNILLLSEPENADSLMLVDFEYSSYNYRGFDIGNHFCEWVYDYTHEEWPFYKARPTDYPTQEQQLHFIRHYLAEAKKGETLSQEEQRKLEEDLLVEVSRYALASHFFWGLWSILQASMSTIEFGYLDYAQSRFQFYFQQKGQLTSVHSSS
Briefly: Biochemical kinase inhibition assay (Kinase-Glo luminescent) on hChoKβ FL. The following applies: ATP 5 μM, choline 20 μM, 60 min rt. How it is done: as §1, §2, §3, §4, §5, §6

The mark [1] stands for this setting: recombinant Δ49N-hChoKα 2.2 nM, read-out: ChoKα IC50.
Where [2] appears, read: recombinant hChoKβ FL 30 nM, read-out: ChoKβ IC50.

By IC50 is commonly meant the concentration at which inhibition is half-maximal. As to `Cn1nc(C(N)=O)c2c1-c1nc(N)ncc1CC2(C)C` [Ref. cpd 1, reference compound], the IC50 on Δ49N-hChoKα (setting [1]) is over 10000 nM. Still for that read-out and setting: next, `CNC(=O)c1nn(C)c2c1C(C)(C)Cc1cnc(N)nc1-2` [Ref. cpd 2, reference compound]: over 10000 nM. `COc1cccc(NC(=O)c2n[nH]c3c2C(C)(C)Cc2cnc(N)nc2-3)c1` [compound 1]: the IC50 amounted to 1580 nM at hChoKβ FL (setting [2]) and 257 nM on Δ49N-hChoKα (setting [1]). Taken in the same sequence, the figures for `COc1ccc(NC(=O)c2n[nH]c3c2C(C)(C)Cc2cnc(N)nc2-3)cc1` [compound 2] were 974 nM and 247 nM. The like results for `CC1(C)Cc2cnc(N)nc2-c2[nH]nc(C(=O)Nc3ccc(OC(F)(F)F)cc3)c21` [compound 3] were, in that order, over 10000 nM and 992 nM. The like results for `CC1(C)Cc2cnc(N)nc2-c2[nH]nc(C(=O)Nc3ccc4c(c3)OCO4)c21` [compound 4] were, in that order, 1120 nM and 244 nM. With `CCOC(=O)c1ccc(NC(=O)c2n[nH]c3c2C(C)(C)Cc2cnc(N)nc2-3)cc1` [compound 5], the IC50 on hChoKβ FL (setting [2]) came out at 2590 nM; at Δ49N-hChoKα (setting [1]), 481 nM. Taken in the same sequence, the figures for `CN1CCN(c2ccc(NC(=O)c3n[nH]c4c3C(C)(C)Cc3cnc(N)nc3-4)cc2)CC1` [compound 6] were 317 nM and 735 nM.

As to `CN1CCC(NC(=O)c2ccc(NC(=O)c3n[nH]c4c3C(C)(C)Cc3cnc(N)nc3-4)cc2)CC1` [compound 8], the IC50 at hChoKβ FL (setting [2]) was found to be 565 nM; on Δ49N-hChoKα (setting [1]) it was 87 nM. The like results for `CN1CCC(NC(=O)c2ccc(NC(=O)c3nn(CCCO)c4c3C(C)(C)Cc3cnc(N)nc3-4)cc2)CC1` [compound 9] were, in that order, 5390 nM and 693 nM. Regarding `CN1CCC(NC(=O)c2cccc(NC(=O)c3n[nH]c4c3C(C)(C)Cc3cnc(N)nc3-4)c2)CC1` [compound 10], the figures for the IC50 on hChoKβ FL (setting [2]) and at Δ49N-hChoKα (setting [1]) were 817 nM and 173 nM, respectively. As to `CC1(C)Cc2cnc(N)nc2-c2[nH]nc(C(=O)Nc3ccc(C(=O)NC4CCOCC4)cc3)c21` [compound 11], the IC50 stood at 395 nM at hChoKβ FL (setting [2]) and 195 nM at Δ49N-hChoKα (setting [1]). Take `CC1(C)Cc2cnc(N)nc2-c2[nH]nc(C(=O)Nc3ccc(C(=O)N4CCC(N5CCCC5)CC4)cc3)c21` [compound 13]: the IC50 was 122 nM on hChoKβ FL (setting [2]) and 42 nM at Δ49N-hChoKα (setting [1]). The like results for `CN(C)C1CCN(C(=O)c2ccc(NC(=O)c3n[nH]c4c3C(C)(C)Cc3cnc(N)nc3-4)cc2)CC1` [compound 14] were, in that order, 37 nM and 198 nM. `CC1(C)Cc2cnc(N)nc2-c2[nH]nc(C(=O)Nc3ccc(C(=O)NC4CCCCC4)cc3)c21` [compound 16]: the half-inhibitory concentration (IC50) on hChoKβ FL (setting [2]) stood at 63 nM; on Δ49N-hChoKα (setting [1]) it was 75 nM.

Consider `CCOC(=O)c1cccc(NC(=O)c2n[nH]c3c2C(C)(C)Cc2cnc(N)nc2-3)c1` [compound 17], for which the concentration for half-maximal inhibition (IC50) at hChoKβ FL (setting [2]) was determined as 2290 nM; on Δ49N-hChoKα (setting [1]), 795 nM. The like results for `CC1(C)Cc2cnc(N)nc2-c2[nH]nc(C(=O)Nc3cccc(C(=O)O)c3)c21` [compound 18] were, in that order, 6350 nM and 641 nM. The like results for `CC1(C)Cc2cnc(N)nc2-c2[nH]nc(C(=O)Nc3ccc(C(=O)N4CCC(N5CCCCC5)CC4)cc3)c21` [compound 20] were, in that order, 76 nM and 24 nM. The like results for `CC1(C)Cc2cnc(N)nc2-c2[nH]nc(C(=O)Nc3cccc(C(=O)NC4CCCCC4)c3)c21` [compound 25] were, in that order, 625 nM and 253 nM.

On to `CC1(C)Cc2cnc(N)nc2-c2[nH]nc(C(=O)Nc3cccc(C(=O)N4CCC(N5CCCC5)CC4)c3)c21` [compound 26], for which the half-inhibitory concentration (IC50) on hChoKβ FL (setting [2]) was 435 nM; on Δ49N-hChoKα (setting [1]), 266 nM. Taken in the same sequence, the figures for `CNC(=O)c1ccc(NC(=O)c2n[nH]c3c2C(C)(C)Cc2cnc(N)nc2-3)cc1` [compound 27] were 444 nM and 267 nM.

For the compound `CC1(C)Cc2cnc(N)nc2-c2[nH]nc(C(=O)Nc3ccc(C(=O)N[C@H]4CC[C@H](O)CC4)cc3)c21` [compound 28], the IC50 at hChoKβ FL (setting [2]) is 3110 nM; on Δ49N-hChoKα (setting [1]), 511 nM. Taken in the same sequence, the figures for `CC1(C)Cc2cnc(N)nc2-c2[nH]nc(C(=O)Nc3ccc(C(=O)NC4CCCC4)cc3)c21` [compound 29] were 71 nM and 132 nM. The like results for `CC1(C)Cc2cnc(N)nc2-c2[nH]nc(C(=O)Nc3ccc(C(=O)NC4CCC4)cc3)c21` [compound 30] were, in that order, 136 nM and 110 nM. The like results for `CC1(C)Cc2cnc(N)nc2-c2[nH]nc(C(=O)Nc3ccc(C(=O)NC4CC4)cc3)c21` [compound 31] were, in that order, 431 nM and 257 nM. On to `Cc1csc(NC(=O)c2n[nH]c3c2C(C)(C)Cc2cnc(N)nc2-3)n1` [compound 32], for which the values for the IC50 at hChoKβ FL (setting [2]) and on Δ49N-hChoKα (setting [1]) were 1090 nM and 66 nM, respectively. The like results for `CCOC(=O)Cc1csc(NC(=O)c2n[nH]c3c2C(C)(C)Cc2cnc(N)nc2-3)n1` [compound 33] were, in that order, over 10000 nM and 430 nM.

With `CC1(C)Cc2cnc(N)nc2-c2[nH]nc(C(=O)NC3CCCCC3)c21` [compound 34], the IC50 at hChoKβ FL (setting [2]) was over 10000 nM; on Δ49N-hChoKα (setting [1]) it was 748 nM. For `CC1(C)Cc2cnc(N)nc2-c2[nH]nc(C(=O)Nc3nc(CC(=O)NC4CCCCC4)cs3)c21` [compound 35], the concentration for half-maximal inhibition (IC50) on hChoKβ FL (setting [2]) is 439 nM; at Δ49N-hChoKα (setting [1]), 47 nM. The like results for `CC1(C)Cc2cnc(N)nc2-c2[nH]nc(C(=O)N3CCC(N4CCCC4)CC3)c21` [compound 36] were, in that order, over 10000 nM and 480 nM. Taken in the same sequence, the figures for `CC1(C)Cc2cnc(N)nc2-c2[nH]nc(C(=O)Nc3nc(CC(=O)N4CCC(N5CCCC5)CC4)cs3)c21` [compound 37] were 69 nM and 3 nM. The like results for `CC1(C)Cc2cnc(N)nc2-c2[nH]nc(C(=O)N3CCC(N4CCCCC4)CC3)c21` [compound 38] were, in that order, over 10000 nM and 682 nM. Regarding `CN1CCN(C2CCN(C(=O)c3ccc(NC(=O)c4n[nH]c5c4C(C)(C)Cc4cnc(N)nc4-5)cc3)CC2)CC1` [compound 41], the IC50 on hChoKβ FL (setting [2]) stood at 471 nM; on Δ49N-hChoKα (setting [1]), 70 nM.

Consider `CC1(C)Cc2cnc(N)nc2-c2[nH]nc(C(=O)Nc3nc(CC(=O)O)cs3)c21` [compound 42], for which the IC50 at hChoKβ FL (setting [2]) was over 10000 nM; at Δ49N-hChoKα (setting [1]) it was 54 nM. For `CC(C)(C)OC(=O)NC1CCN(C(=O)Cc2csc(NC(=O)c3n[nH]c4c3C(C)(C)Cc3cnc(N)nc3-4)n2)CC1` [compound 43], the values for the IC50 on hChoKβ FL (setting [2]) and on Δ49N-hChoKα (setting [1]) were 1030 nM and 7 nM, respectively. Regarding `CC1(C)Cc2cnc(N)nc2-c2[nH]nc(C(=O)Nc3nc(CC(=O)N4CCC(N)CC4)cs3)c21` [compound 44], the IC50 at hChoKβ FL (setting [2]) was found to be 256 nM; at Δ49N-hChoKα (setting [1]) it was 25 nM. For the compound `CC1(C)Cc2cnc(N)nc2-c2[nH]nc(C(=O)Nc3nc(CC(=O)N4CCC(=O)CC4)cs3)c21` [compound 45], the IC50 is over 10000 nM at hChoKβ FL (ChoKβ IC50, recombinant hChoKβ FL 30 nM) and 121 nM on Δ49N-hChoKα (ChoKα IC50, recombinant Δ49N-hChoKα 2.2 nM).
